The values below come from patent US20240254145A1, “SALT FORM AND CRYSTAL FORM OF HETEROCYCLIC SUBSTITUTED PURINONE DERIVATIVE” (ZAI LAB (SHANGHAI) CO., LTD., priority 2021, published 2024).

The target in one data set is T1, Human DNA-PK (Homo sapiens, UniProt P78527).
T1 construct: purchased Eurofins (Eurofins Pharma Discovery Service; outsourced assay)
Briefly: DNA-dependent protein kinase (DNA-PK) inhibitory activity screening assay (Eurofins, HTRF). It is filed as biochemical. To be noted: ATP: 10 μM, 50 nM GST-cMyc-p53. On the procedure:
This experiment was tested in the Eurofins
Human DNA-PK; Mg/ATP; GST-cMyc-p53; EDTA; Ser15 antibody; ATP: 10 μM.
DNA-PK(h) was incubated in assay buffer containing 50 nM GST-cMyc-p53 and Mg/ATP (according to the required concentration). The reaction was initiated by adding the Mg/ATP mixture. After incubation at room temperature for 30 minutes, the reaction was stopped by adding a stop solution containing EDTA. Finally, detection buffer (containing labeled anti-GST monoclonal antibody and europium-labeled anti-phospho Ser15 antibody against phosphorylated p53) was added. The plate was then read in time-resolved fluorescence mode, and the homogeneous time-resolved fluorescence (HTRF) signal was determined according to the formula HTRF=10000×(Em665 nm/Em620 nm).

Data set [1] is described as follows: Pharmacokinetic evaluation in rat plasma after oral administration. As to conditions: 30 mg/kg, SD male rats. It is filed as in vivo. On the procedure:
The test compound was mixed with 0.5% CMC-Na+0.2% (V:V) Tween80 aqueous solution, vortexed, and sonicated to prepare a 3 mg/mL homogeneous suspension. SD male rats were selected, and orally administered with the candidate compound solution at a dose of 30 mg/kg. Whole blood was collected for a certain period of time and prepared into plasma. The drug concentration was analyzed by the LC-MS/MS method, and the pharmacokinetic parameters were calculated using Phoenix WinNonlin software (Pharsight, USA).
Cmax: highest plasma drug concentration after administration; Tmax: time required to reach the peak concentration after administration; T1/2: time required for the plasma drug concentration to decrease by half; Tlast: time at the last detection point; AUC0-last: area under the drug-time curve, which refers to the area enclosed by the plasma drug concentration curve and the time axis.

A short description of data set [2]: Solid-state stability test of crystal form B (XRPD and HPLC purity). It is filed as physicochemical. On the procedure:
Based on the “Guideline for Stability Testing of Pharmaceutical Ingredients and Formulations” (Chinese Pharmacopoeia 2020 Edition, General Rule 9001), in order to evaluate the solid-state stability of the crystal form B of the compound of formula (II-1), the solid-state stability of the crystal form B was investigated in terms of the influencing factors (high temperature, high humidity, and light) and the conditions of 60° C./75% RH and 40° C./75% RH. The crystal form B was placed at high temperature (60° C., open) and high humidity (25° C./92.5° RH, open) for 10 days respectively, and then placed open under visible and UV light (samples of the shaded control group were placed at the same time and wrapped in tin foil) according to the ICH conditions (total illuminance up to 1,200,000 Lux hrs in visible and 200 W hrs/m^2 in UV), for 1, 2, and 3 months at 60° C./75% RH (open), and for 1, 2, and 3 months at 40° C./75% RH (open).
About 10 mg of this crystal form was accurately weighed and placed in a dry and clean glass vial, spread into a thin layer, and left open under the test conditions of the influence factors and the accelerated conditions. Samples placed under light conditions (visible light 1200000 Lux hrs, UV 200 W hrs/m^2) were in a clear glass vial with full exposure, and samples for XRPD test were placed separately.
After the sample was taken out at the time point, it was covered, sealed with a sealing film, and stored in a −20° C. refrigerator. When preparing the sample, the sample was taken out of the refrigerator and warmed to room temperature, and dissolved with 25 mL of diluent (acetonitrile/water, 1:1, v/v) to obtain a solution with a concentration of approximately 0.5 mg/mL. The solution was analyzed using the liquid chromatography, and the results of the test were compared with the initial test results on day 0.
Preparation of standard solution on day 0: About 12.5 mg of this crystal form was weighed and placed in a 25 mL volumetric flask, dissolved with […], and diluted to the mark.
At the same time, HPLC tests were performed on all stability samples.

A short description of data set [3]: Hygroscopicity study by dynamic vapor sorption (DVS). It is filed as physicochemical. To be noted: 25° C. and 80% RH. The protocol: Instrument model: SMS DVS intrinsic dynamic moisture sorption analyzer
Test conditions: a sample (about 10 mg) is taken and placed in the DVS sample tray for testing.
The detailed DVS parameters are as follows:
Equilibrium: dm/dt=0.01%/min
RH (%) test increment: 5% RH
RH (%) test increment range: 0% to 95% to 0%
The evaluation and classifications of hygroscopicity are shown as follows:
Sufficient moisture is absorbed to produce a fluid: Deliquescence; ΔW %≥15%: High hygroscopicity; 15%>ΔW %≥2%: Hygroscopicity; 2%>ΔW %≥0.2%: Slight hygroscopicity; ΔW %<0.2%: No hygroscopicity or almost no hygroscopicity: ΔW % indicates hygroscopic weight gain of the sample at 25±1° C. and 80±2% RH.
The crystal form B of the compound of formula (II-1) (about 10 mg) was taken and placed in the DVS sample tray for testing.

For data set [4], the system named is human lung cancer NCI-H1703 xenograft tumor. Kind of data set: In vivo pharmacodynamic study, NCI-H1703 subcutaneous xenograft tumor model. Details: species or system female BALB/c nude mice. To be noted: for Tumor volume (Day 0): Day 0, Mean ± SEM; for Tumor volume (Day 0) / Tumor volume (Day 21) / Tumor weight (Day 21): n = 9; for RTV (Day 21) / T/C (%) (Day 21) / T/Cweight (%) / TGI (%) (Day 21): Day 21; for Tumor volume (Day 21) / Tumor weight (Day 21): Day 21, Mean ± SEM. On the procedure:
Experimental purpose: To study the in vivo pharmacodynamics of the test compound in the BALB/c nude mouse model with subcutaneous xenograft tumor of human […] NCI-H1703 cells.
Experimental animals: Experimental animals: female BALB/c nude mice, 6 to 8 weeks of age, weighing 18 to 22 grams; supplier: Shanghai Sippr-BK Lab.Animal Co.Ltd.
Human non-small cell lung cancer NCI-H1703 cells were cultured in vitro in RPMI1640 medium with 10% fetal bovine serum, 100 U/mL penicillin, and 100 μg/mL streptomycin, and cultured at 37° C. in a 5% CO2 incubator. Conventional digestion with trypsin-EDTA was performed twice a week for passaging. When the cell saturation was 80% to 90% and the number of cells reached the requirement, and the cells were collected, counted, and seeded.
0.2 mL (5×10^6) NCI-H1703 cells (added with Matrigel, volume ratio of 1:1) were subcutaneously inoculated on the right back of each mouse, and the administration in groups began when the average tumor volume reached about 130 mm^3.
The compound of formula (I) was prepared into 3 mg/mL, 6 mg/mL, and 9 mg/mL suspension solutions with 98.5% water+0.5% HPMC+1% Tween 80.
Tumor diameters were measured with a vernier caliper twice a week. The formula for calculating tumor volume is: V=0.5a×b^2, wherein a and b represent the long and short diameters of the tumor, respectively. The relative tumor volume (RTV) was calculated based on the results of tumor measurement. The calculation formula is RTV=Vt/V0, wherein V0 is the tumor volume measured at the time of group administration (i.e., day 0), and Vt is the tumor volume at one measurement. Data of the same day was taken for TRTV and CRTV.
The tumor inhibitory effect of the compound was evaluated by TGI (%, reflecting the tumor growth inhibition rate) or relative tumor proliferation rate T/C (%):
T/C (%)=TRTV/CRTV×100%, TRTV represents the average RTV of the treatment group, and CRTV represents the average RTV of the negative control group.
TGI (%)=[1−(average tumor volume at the end of administration in a certain treatment group−average tumor volume at the beginning of administration in this treatment group)/(average tumor volume at the end of treatment in the vehicle control group−average tumor volume at the beginning of treatment in the vehicle control group)]×100%.
After the experiment, the tumor weight (TW) was detected and T/Cweight (%) was calculated. The calculation formula is: T/Cweight (%)=TWtreatment/TWvehicle×100%. TWtreatment and TWvehicle represent the tumor weights of the administration group and vehicle control group, respectively.
Statistical analysis was performed using SPSS software based on RTV data at the end of the experiment. […] T-test was used to analyze the comparison between two groups, and one-way ANOVA was used to analyze the comparisons between three or more groups. If the variance was homogeneous (F value had no significant difference), Tukey's method is used for analysis; if the variance was not homogeneous (F value had significant difference), and the Games-Howell method was used for testing. p<0.05 was considered a significant difference.

Turning to `Cc1cc2ncnn2cc1Nc1ncc2c(n1)n(N1CC3CCC(C1)O3)c(=O)n2C`, 600 pM corresponded to half-maximal inhibition on Human DNA-PK (IC50). In addition, in data set [1] (male, SD, rat, po), the area under the curve AUC(0-t) (as a rule, the area under the concentration-time curve up to a stated or last time point) is 87.4 µM·h and the Cmax (as a rule, the maximum level reached in the sampled fluid or tissue) came out at 11.1 µM.

On to `Cc1cc2ncnn2cc1Nc1ncc2c(n1)n(N1CC3CCC(C1)O3)c(=O)n2C` [Crystal form A of the compound of formula (I)], for which, in data set [1], the AUC0-last came to 83.483 µM·h; the peak level (Cmax) was 14.6 µM; the T1/2 is listed as 1.59 h; the time to peak (Tmax) (in general, the time at which the peak concentration occurs) was 0.67 h.

For `Cc1cc2ncnn2cc1Nc1ncc2c(n1)n(N1CC3CCC(C1)O3)c(=O)n2C` [Crystal form B of the compound of formula (II-1)], the “Purity (area %)” value is on record as 99.70 area % in data set [2] (0 days (initial)); 99.77 area % in data set [2] (40° C., relative humidity of 75%, open, one month); 99.72 area % in data set [2] (40° C., relative humidity of 75%, open, three months); 99.76 area % in data set [2] (40° C., relative humidity of 75%, open, two months); 99.76 area % in data set [2] (60° C., relative humidity of 75%, open, one month); 99.73 area % in data set [2] (60° C., relative humidity of 75%, open, three months). In addition, the “Purity (area %)” value came to 99.73 area % in data set [2] (60° C., relative humidity of 75%, open, two months); 99.75 area % in data set [2] (High humidity (25° C., relative humidity of 92.5%, open), 10 days); 99.71 area % in data set [2] (High temperature (60° C., open), 10 days); 99.75 area % in data set [2] (Shaded control group, wrapped with tin foil, placed with visible light + UV); 99.77 area % in data set [2] (Visible light + UV (ICH conditions), 1,200,000 Lux·hrs, 200 W·hrs/m^2). The Hygroscopicity classification entry in data set [3] was “slightly hygroscopic”. In data set [1], the T1/2 is recorded as 4.07 h. In addition, the Tmax in data set [1] was found to be 1.33 h.

With `Cc1cc2ncnn2cc1Nc1ncc2c(n1)n(N1CC3CCC(C1)O3)c(=O)n2C` [Compound of formula (I)], in data set [4] (30 mg/kg), the “Tumor volume (Day 0)” value amounted to 131 ± 10 mm^3, the “RTV (Day 21)” value is reported as 7.57 ± 0.53, the “T/C (%) (Day 21)” value stood at 79.3% and the “T/Cweight (%)” value was 79.6%. Moreover, in data set [4] (30 mg/kg), the “TGI (%) (Day 21)” value was 20.6%, the “Tumor volume (Day 21)” value came out at 979 ± 86 mm^3 and the “Tumor weight (Day 21)” value is listed as 1.031 ± 0.095 g. In data set [4] (60 mg/kg), the “Tumor volume (Day 0)” value was 131 ± 10 mm^3, the “RTV (Day 21)” value is 3.31 ± 0.51, the “T/C (%) (Day 21)” value was determined as 34.7% and the “T/Cweight (%)” value is recorded as 36.0%. Besides, in data set [4] (60 mg/kg), the “TGI (%) (Day 21)” value is listed as 72.3%, the “Tumor volume (Day 21)” value was 427 ± 64 mm^3 and the “Tumor weight (Day 21)” value is 0.467 ± 0.078 g. In data set [4] (90 mg/kg), the “Tumor volume (Day 0)” value amounted to 130 ± 10 mm^3, the “RTV (Day 21)” value turned out to be 2.64 ± 0.45, the “T/C (%) (Day 21)” value stood at 27.7% and the “T/Cweight (%)” value turned out to be 29.2%. For the same compound, in data set [4] (90 mg/kg), the “TGI (%) (Day 21)” value is reported as 79.4%, the “Tumor volume (Day 21)” value is on record as 351 ± 64 mm^3 and the “Tumor weight (Day 21)” value amounted to 0.379 ± 0.069 g.

In data set [1], `Cc1cc2ncnn2cc1Nc1ncc2c(n1)n(N1CC3CCC(C1)O3)c(=O)n2C` [Crystal form K of the compound of formula (VIII-1)] came in with an AUC0-last of 127.313 µM·h, a maximum concentration (Cmax) of 21.7 µM, a T1/2 of 2.42 h and a Tlast of 32.0 h. Moreover, in data set [1], the Tmax worked out at 1.50 h.
